# In ChEMBL document CHEMBL5726927, “Heterocyclic derivatives as modulators of kinase activity” (2019):
# Assay: P70S6K Enzyme Assay: P70S6K inhibitor compounds were diluted and plated in 96 well plates. A reaction mixture including the following components was then added to the compound plate to initiate the enzyme reaction; P70S6K (3 nM, T412E mutant, Millipore) was mixed with 24 μM ATP in an assay buffer containing 100 mM Hepes (pH 7.5), 5 mM MgCl2, 1 mM DTT, 0.015% Brij and 1 μM of the substrate peptide FITC-AHA-AKRRRLSSLRA-OH (derived from the S6 ribosomal protein sequence, FITC=fluorescein isothiocyanate, AHA=6-aminohexanoic acid). The reaction was incubated for 90 min at 25° C., before the addition of 10 mM EDTA to stop the reaction. The proportion of substrate and product (phosphorylated) peptide was analysed on a Caliper Life Sciences Lab Chip 3000, using a pressure of −1.4 psi, and upstream and downstream voltages of −3000 and −700 respectively. Product peaks were resolved before substrate peaks on the resulting chromatograms.
smiles,measurement,value
O=C1CNc2ncnc(N3CCN(C(CN4CCCC4)c4ccc(F)c(Cl)c4)CC3)c2N1 (stereo unspecified),IC50,> 1000 nM
